Like-named read-outs stand apart in the source and are kept apart here.

Common to all, as to assay type: cell-based
Assay [1] concerns the target T1, CDK2 (Homo sapiens, UniProt P24941).
T1 construct: host or cells: HEK293-CDK2-Hibit
Description: HiBit Assay Protocol for CDK2 (HIBIT protein quantification, degradation). As to conditions: HEK293-CDK2-Hibit cells, compound treatment for 6 hours; for DC50: ABS DC50. An outline of the steps:
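DC50 comes from a fitted curve of remaining CDK2-HiBiT luminescence, referenced to DMSO-treated cells and medium-only wells. HEK293-CDK2-HiBiT cells, plated the previous night, received compounds in a 10-point, 3-fold series for 6 h before lysis with LgBiT-containing Nano-Glo HiBiT reagent.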

Assay [2] deals with T2, CCNE1 (Homo sapiens, UniProt P24864).
T2 construct: host or cells: HEK293-CCNE1-Hibit
T2 sequence (P24864 whole entry): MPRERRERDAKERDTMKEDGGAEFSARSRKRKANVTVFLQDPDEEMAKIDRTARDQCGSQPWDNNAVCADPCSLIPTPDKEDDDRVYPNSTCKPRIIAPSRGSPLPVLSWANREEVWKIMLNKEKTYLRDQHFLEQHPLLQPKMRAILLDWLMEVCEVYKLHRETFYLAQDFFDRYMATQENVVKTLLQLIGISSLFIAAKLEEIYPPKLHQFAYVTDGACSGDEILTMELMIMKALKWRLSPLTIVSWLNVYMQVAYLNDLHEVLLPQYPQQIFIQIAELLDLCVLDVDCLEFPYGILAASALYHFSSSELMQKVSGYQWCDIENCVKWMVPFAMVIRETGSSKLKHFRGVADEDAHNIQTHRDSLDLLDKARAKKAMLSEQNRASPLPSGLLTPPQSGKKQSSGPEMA
As to the kind of experiment: HiBit Assay Protocol for CCNE1 (HIBIT protein quantification, degradation). As to conditions: HEK293-CCNE1-Hibit cells, compound treatment for 6 hours. The method in brief:
(§1)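 Degradation readout: lytic Nano-Glo HiBiT luminescence after 6 h exposure of HEK293-CCNE1-HiBiT cells to 10-point, 3-fold serial dilutions. Signal was scaled between medium-only and DMSO-treated wells, and DC50 came from curve fits.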

In assay [3] the target is T3, CCNE1 (Homo sapiens, UniProt P24864+P24941).
T3 construct: host or cells: HEK293-CCNE1-Hibit
T3 sequence (P24864 whole entry, one chain of several): as the sequence (P24864 whole entry) above
The assay is described as above. The note with it: HEK293-CCNE1-Hibit cells, compound treatment for 6 hours, ABS DC50. An outline of the steps: as §1

Assay [4] deals with T4, CDK9 (Homo sapiens, UniProt P50750).
T4 construct: host or cells: HEK293-CDK9-Hibit
T4 sequence (P50750 whole entry): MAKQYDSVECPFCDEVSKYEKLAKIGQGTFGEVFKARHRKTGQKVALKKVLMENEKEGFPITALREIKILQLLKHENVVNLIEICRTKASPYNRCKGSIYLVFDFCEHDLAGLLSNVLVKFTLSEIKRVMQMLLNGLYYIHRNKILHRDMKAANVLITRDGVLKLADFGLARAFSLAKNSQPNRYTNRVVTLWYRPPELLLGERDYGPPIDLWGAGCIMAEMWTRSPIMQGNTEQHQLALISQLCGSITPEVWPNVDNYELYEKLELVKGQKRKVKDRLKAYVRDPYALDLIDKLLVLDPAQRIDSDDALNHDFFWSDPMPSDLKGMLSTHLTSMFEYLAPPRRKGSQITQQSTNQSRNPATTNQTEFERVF
As to the kind of experiment: HiBit Assay Protocol for CDK9 (HIBIT protein quantification, degradation). As to conditions: HEK293-CDK9-Hibit cells, compound treatment for 6 hours; for Dmax: read-out: CDK9 HIBIT Protein Quantification Maximum. An outline of the steps:
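Degradation read-out: luminescence after lytic HiBiT/LgBiT detection in HEK293-CDK9-HiBiT cells exposed 6 h to 10-point, 3-fold compound dilutions. Signal scaled between 0.1% DMSO-treated cells and medium alone; DC50 fitted from the curve.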

As to `CC1CCCC1N1C(=O)C2(CC2)c2cnc(NC3CCN(S(=O)(=O)N4CCC5(CCCN5C(=O)CCCCCc5cccc6c5n(C)c(=O)n6C5CCC(=O)NC5=O)C4)CC3)nc21` (stereo not shown) [Compound 36], the “CDK2 HIBIT Protein Quantification Maximum” value in assay [1] is recorded as 46%. Also, the “CCNE1 HIBIT Protein Quantification Maximum” value in assay [2] worked out at 59%. Moreover, it took 515 nM to reach half-maximal degradation in assay [3] (DC50). In assay [4] (6 h), the Dmax worked out at 49%.

As to `Cn1nc(N2CCC(=O)NC2=O)c2cccc(C3CCN(Cc4cccc(S(=O)(=O)N5CCC(Nc6ncc7c(n6)N([C@H]6CCC[C@H](O)C6)C(=O)C76CC6)CC5)c4)CC3)c21` (stereo in doubt) [Compound 146, 1-[7-(1-{[3-(4-{7′-[(1S,3S)-3-hydroxycyclohexyl]-6′-oxospiro[cyclopropane-1,5′-pyrrolo[2,3-d]pyrimidin]-2′-ylamino}piperidin-1-ylsulfonyl)phenyl]methyl}piperidin-4-yl)-1-methylindazol-3-yl]-1,3-diazinane-2,4-dione], in assay [1], the “CDK2 HIBIT Protein Quantification Maximum” value was determined as 76% and the DC50 (usually the midpoint of the concentration-degradation curve) amounted to 30 nM. The “CCNE1 HIBIT Protein Quantification Maximum” value in assay [2] was found to be 82%. Moreover, in assay [3], the DC50 is 36.2 nM. The Dmax in assay [4] turned out to be 4%.

Take `CN(CCCN1CCC(c2cccc3c2n(C)c(=O)n3C2CCC(=O)NC2=O)CC1)S(=O)(=O)N1CCC(Nc2ncc3c(n2)N([C@@H]2CCC[C@@H](O)C2)C(=O)C32CC2)CC1` (stereo partly drawn) [Compound 131, N-(3-{4-[1-(2,6-Dioxopiperidin-3-yl)-3-methyl-2-oxo-1,3-benzodiazol-4-yl]piperidin-1-yl}propyl)-4-{7′-[(1R,3R)-3-hydroxycyclohexyl]-6′-oxospiro[cyclopropane-1,5′-pyrrolo[2,3-d]pyrimidin]-2′-ylamino}-N-methylpiperidine-1-sulfonamide]: the “CDK2 HIBIT Protein Quantification Maximum” value in assay [1] was 83%. Moreover, the results for the DC50 in assay [1], in assay [3] and in assay [4] (ABS DC50) were 21.9 nM, 19.9 nM and 69.2 nM, respectively. The “CCNE1 HIBIT Protein Quantification Maximum” value in assay [2] was 63%. For the same compound, the Dmax in assay [4] (6 h) came to 56%.

On to `C[C@H]1CCC[C@H]1N1C(=O)C2(CC2)c2cnc(NC3CCN(S(=O)(=O)N(C)CCCN4CCC(c5cccc6c5n(C)c(=O)n6C5CCC(=O)NC5=O)CC4)CC3)nc21` (stereo partly drawn) [Compound 13, N-(3-{4-[1-(2,6-Dioxopiperidin-3-yl)-3-methyl-2-oxo-1,3-benzodiazol-4-yl]piperidin-1-yl}propyl)-N-methyl-4-{7′-[(1R,2S)-2-methylcyclopentyl]-6′-oxospiro[cyclopropane-1,5′-pyrrolo[2,3-d]pyrimidin]-2′-ylamino}piperidine-1-sulfonamide], for which, in assay [1], the “CDK2 HIBIT Protein Quantification Maximum” value came out at 79% and the DC50 came out at 17.3 nM. Besides, the “CCNE1 HIBIT Protein Quantification Maximum” value in assay [2] worked out at 52.8%. The compound also came in with a DC50 in assay [3] of 17.6 nM.

Take `C[C@@H]1CN(S(=O)(=O)c2cccc(CN3CCC(c4ccc5c(N6CCC(=O)NC6=O)nn(C)c5c4)CC3)c2)CC[C@@H]1Nc1ncc2c(n1)N([C@@H]1CCC[C@@H](O)C1)C(=O)C21CC1` [Compound 153, 1-{6-[1-({3-[(3R,4S)-4-{7′-[(1R,3R)-3-Hydroxycyclohexyl]-6′-oxospiro[cyclopropane-1,5′-pyrrolo[2,3-d]pyrimidin]-2′-ylamino}-3-methylpiperidin-1-ylsulfonyl]phenyl}methyl)piperidin-4-yl]-1-methylindazol-3-yl}-1,3-diazinane-2,4-dione]: in assay [1], the “CDK2 HIBIT Protein Quantification Maximum” value is 57% and the DC50 came out at 9.42 nM. Besides, in assay [2], the “CCNE1 HIBIT Protein Quantification Maximum” value is reported as 28%. In addition, the Dmax in assay [4] (6 h) came to 17%.

On to `O=C1CCC(N2Cc3cc(N4CCC(N5CC(Oc6cccc(S(=O)(=O)N7CCC(Nc8ncc9c(n8)N([C@@H]8CCC[C@@H](O)C8)C(=O)C98CC8)CC7)c6)C5)CC4)ccc3C2=O)C(=O)N1` (stereo partly drawn) [Compound 134, 3-[5-(4-{3-[3-(4-{7′-[(1R,3R)-3-Hydroxycyclohexyl]-6′-oxospiro[cyclopropane-1,5′-pyrrolo[2,3-d]pyrimidin]-2′-ylamino}piperidin-1-ylsulfonyl)phenoxy]azetidin-1-yl}piperidin-1-yl)-1-oxo-3H-isoindol-2-yl]piperidine-2,6-dione], for which, in assay [1], the “CDK2 HIBIT Protein Quantification Maximum” value came to 74% and half-maximal degradation (DC50) was put at 4.22 nM. Besides, the “CCNE1 HIBIT Protein Quantification Maximum” value in assay [2] is reported as 18%. The Dmax in assay [4] is 31%.

As to `CC(C)[C@H]1CN([C@H](C)c2cccc(S(=O)(=O)N3CC[C@H](Nc4ncc5c(n4)N([C@@H]4CCC[C@@H](O)C4)C(=O)C54CC4)[C@H](F)C3)c2)CCN1c1ccc2c(N3CCC(=O)NC3=O)nn(C)c2c1` (stereo in doubt) [Compound 203], in assay [1], the “CDK2 HIBIT Protein Quantification Maximum” value amounted to 85% and the 50% degradation concentration (DC50) was 10.2 nM. The “CCNE1 HIBIT Protein Quantification Maximum” value in assay [2] was found to be 34%. The Dmax in assay [4] (6 h) was determined as 18%.

Turning to `Cn1nc(N2CCC(=O)NC2=O)c2ccc(C3CCN(Cc4cccc(S(=O)(=O)N5CCC(Nc6ncc7c(n6)N(c6cc(F)ccc6Cl)C(=O)C76CC6)CC5)c4)CC3)cc21` [Compound 162, 1-(6-{1-[(3-{4-[7′-(2-Chloro-5-fluorophenyl)-6′-oxospiro[cyclopropane-1,5′-pyrrolo[2,3-d]pyrimidin]-2′-ylamino]piperidin-1-ylsulfonyl}phenyl)methyl]piperidin-4-yl}-1-methylindazol-3-yl)-1,3-diazinane-2,4-dione], in assay [1], the “CDK2 HIBIT Protein Quantification Maximum” value was 75% and half-maximal degradation (DC50) was put at 8.03 nM. Further, in assay [2], the “CCNE1 HIBIT Protein Quantification Maximum” value is listed as 42%. For the same compound, in assay [4], the Dmax was found to be 4%.

For `O=C1CCC(N2Cc3cc(N4CC5(CN(Cc6cccc(S(=O)(=O)N7CCC(Nc8ncc9c(n8)N([C@@H]8CCC[C@@H](O)C8)C(=O)C98CC8)CC7)c6)C5)C4)ccc3C2=O)C(=O)N1` (stereo partly shown) [Compound 120], in assay [1], the “CDK2 HIBIT Protein Quantification Maximum” value was determined as 62% and the DC50 worked out at 23 nM. In addition, the “CCNE1 HIBIT Protein Quantification Maximum” value in assay [2] worked out at 23%. In assay [4] (6 h), the Dmax came to 25%.

As to `CC1CCCC1N1C(=O)C2(CC2)c2cnc(NC3CCN(S(=O)(=O)N4CC5(CCCN(C(=O)CCCCCc6cccc7c6n(C)c(=O)n7C6CCC(=O)NC6=O)C5)C4)CC3)nc21` (stereo not shown) [Compound 39], in assay [1], the “CDK2 HIBIT Protein Quantification Maximum” value is reported as 54% and the DC50 is 7 nM. Also, the “CCNE1 HIBIT Protein Quantification Maximum” value in assay [2] is on record as 9%. Moreover, the Dmax in assay [4] (6 h) was 6%.

Regarding `CC1CCCC1N1C(=O)C2(CC2)c2cnc(NC3CCN(S(=O)(=O)N4CC5(CCCN(c6cccc(-c7cccc8c7n(C)c(=O)n8C7CCC(=O)NC7=O)c6)C5)C4)CC3)nc21` (stereo not shown) [Compound 136, 3-{3-Methyl-4-[3-(2-{4-[7′-(2-methylcyclopentyl)-6′-oxospiro[cyclopropane-1,5′-pyrrolo[2,3-d]pyrimidin]-2′-ylamino]piperidin-1-ylsulfonyl}-2,6-diazaspiro[3.5]nonan-6-yl)phenyl]-2-oxo-1,3-benzodiazol-1-yl}piperidine-2,6-dione], in assay [1], the “CDK2 HIBIT Protein Quantification Maximum” value was 61% and it took 131 nM to reach half-maximal degradation (DC50). For the same compound, the “CCNE1 HIBIT Protein Quantification Maximum” value in assay [2] is on record as 7%. Further, the Dmax in assay [4] was 14%.

For `CC1CCCC1N1C(=O)C2(CC2)c2cnc(NC3CCN(S(=O)(=O)N4CC5(CCCCN5C(=O)CCCc5ccc6c(c5)n(C)c(=O)n6C5CCC(=O)NC5=O)C4)CC3)nc21` (stereo not shown) [Compound 65], the “CDK2 HIBIT Protein Quantification Maximum” value in assay [1] turned out to be 30%. In assay [2], the “CCNE1 HIBIT Protein Quantification Maximum” value came out at 4%. For the same compound, the Dmax in assay [4] (6 h) worked out at 9%.

Consider `Cn1nc(N2CCC(=O)NC2=O)c2ccc(C3CCN(Cc4ccc(F)c(S(=O)(=O)N5CCC(Nc6ncc7c(n6)N([C@@H]6CCC[C@@H](O)C6)C(=O)C76CC6)CC5)c4)CC3)cc21` [Compound 171], for which, in assay [1], the “CDK2 HIBIT Protein Quantification Maximum” value is given as 55% and the DC50 was 4.43 nM. The “CCNE1 HIBIT Protein Quantification Maximum” value in assay [2] is given as 29%. Further, the Dmax in assay [4] (6 h) came to 15%.

Consider `CC1CCCC1N1C(=O)C2(CC2)c2cnc(NC3CCN(S(=O)(=O)N4CCCN(C(=O)CCCCc5ccc6c(c5)n(C)c(=O)n6C5CCC(=O)NC5=O)CC4)CC3)nc21` (stereo not shown) [Compound 113], for which the “CDK2 HIBIT Protein Quantification Maximum” value in assay [1] stood at 21%. For the same compound, the “CCNE1 HIBIT Protein Quantification Maximum” value in assay [2] is recorded as 28%. Also, in assay [4] (6 h), the Dmax was 6%.

Take `CC1CCCC1N1C(=O)C2(CC2)c2cnc(NC3CCN(S(=O)(=O)C4CCCN(C(=O)CCCCCCCc5ccc6c(c5)n(C)c(=O)n6C5CCC(=O)NC5=O)C4)CC3)nc21` (stereo not shown) [Compound 85]: the “CDK2 HIBIT Protein Quantification Maximum” value in assay [1] is recorded as 17%. For the same compound, in assay [2], the “CCNE1 HIBIT Protein Quantification Maximum” value was 41%. Further, the Dmax in assay [4] (6 h) was found to be 14%.

With `CC1CCCC1N1C(=O)C2(CC2)c2cnc(NC3CCN(S(=O)(=O)N4CCN(C(=O)CCCCCCCc5cccc6c5n(C)c(=O)n6C5CCC(=O)NC5=O)CC4)CC3)nc21` (stereo not shown) [Compound 46], in assay [1], the “CDK2 HIBIT Protein Quantification Maximum” value is recorded as 74% and it took 5 nM to reach half-maximal degradation (DC50). Also, the “CCNE1 HIBIT Protein Quantification Maximum” value in assay [2] was 35%. Also, in assay [4] (6 h), the Dmax came to 44%.
